# Measured values from paper PMC6940745 (International Journal of Molecular Sciences, 2019).
# pEC50: −log10 of the molar value. Where a SMILES comes first, the peptide text is derived from it. [ ]: non-standard residue; d: D form. The star is where a group is joined. Bz = O=C(c1ccccc1)*; NPr2 = CCCN(CCC)*
# What was measured:
# OP1R = molecular target: T1, OP1R (Homo sapiens, UniProt P41143); assay: OP1R (delta opioid) activation, GTPγS scintillation proximity assay; type: biochemical; details: eight concentrations, 0.01 to 100,000 nM
# T1 construct: host or cells: CHO-K1 (membrane preparations)
# Method: Melatonin (MT1R and MT2R) and opioid receptor (OP1R, OP2R, and OP3R, corresponding to human delta, kappa, and mu opioid receptors) activation assays were performed by means of GTPγS scintillation proximity assays. For agonist testing, membrane preparations from CHO-K1 cells expressing each receptor (EuroscreenFast, Gosselies, Belgium) were mixed with guanosine diphosphate (GDP) (v/v). In parallel, GTPγ[^35S] (PerkinElmer, NEG030X, 0.1 nM final assay concentration) was mixed with PVT-WGA beads (Perkin Elmer, RPNQ001, 0.5 mg/well final assay density) (v/v) just before starting the reaction. The following reagents were then successively added in the wells of an Optiplate (Perkin Elmer): A total of 50 µL of test or reference ligand diluted in assay buffer, 10 µL of assay buffer (20 mM HEPES pH 7.4; 100–200 mM NaCl, 10 µg/mL saponin, MgCl2 at optimized concentration for the specific receptor, 0%–0.1% BSA), 20 µL of the membranes: GDP mix, and 20 µL of the GTPγ[^35S]: Beads mix. The plates were covered with a top seal, mixed on an orbital shaker for 2 min, and then incubated for 1 h at room temperature. Then the plates were centrifuged for 10 min at 2000 rpm, incubated at room temperature for 1 h, and counted for 1 min/well with a PerkinElmer TopCount™ reader.
# human ETBR = human ETBR (Homo sapiens, UniProt P24530); assay: ETBR activation, Aequorin assay; type: cell-based; details: eight concentrations, 0.01 to 100,000 nM
# Method: Melanin-concentrating hormone receptor (MCHR), endothelin-1 receptor (ETBR), and serotonin-receptor (5-HT2AR) assays were performed by means of Aequorin assays. Recombinant cells co-expressing human MCH1R, MCH2R, ETBR, or 5-HT2AR and mitochondrial apoaequorin (MCH1R, MCH2R and 5-HT2AR cells also co-express recombinant Gα16 protein) (EuroscreenFast, Gosselies, Belgium), grown 18 h prior to the test in media without antibiotics, were detached by gentle flushing with PBS-EDTA (5 mM EDTA), recovered by centrifugation, and resuspended in assay buffer (DMEM/HAM’s F12 with HEPES + 0.1% BSA protease free). Cells were incubated under agitation at room temperature for at least 4 h with Coelenterazine h (Promega, X300X, 0.5 µM final concentration). Dose response curves with the reference compounds were performed before testing the compounds. For agonist testing, 50 µL of cell suspension was injected on 50 µL of test compound or reference agonist diluted in assay buffer and plated in a 96-well plate. The resulting emission of light was recorded using the Hamamatsu Functional Drug Screening System 6000 (FDSS 6000). […] Agonist activity of test compound was expressed as a percentage of the activity of the reference agonist at its EC100 concentration.
# [1] = tested on: human abdominal skin ex vivo; assay: Stimulation of pigmentation in human abdominal skin ex vivo (Fontana-Masson melanin quantification); type: cell-based; details: topical
# Method: Following declaration of Helsinki principles (DoH-Oct2013, World Medical Association, Ferney-Voltaire, France), human skin samples were obtained from elective plastic surgery after informed consent was obtained. For the two experiments shown in Figure 2, Figure 3 and Figure 4, we had one person with an individual topology angle (ITA°) of 18, and one person with an ITA° of 39 [69]. The skin samples were cut in pieces of 8 × 3 mm and cultured up to day 6. Skin samples were cultured in an air–liquid interface in a perforated ring of stainless steel in contact with culture medium (modified Williams’ E medium). The culture medium was renewed every three days (i.e., day 0–3). Compounds were added daily in DMSO at 4 µL volume. At day 6, the skin samples were fixed in formalin, embedded in paraplast, and cut at the microtome for histochemical staining and consequent image analysis. Six skin biopsies were used for each single treatment.
# Two skin biopsies for each treatment were weighed and, in each case, reduced in the dermal portion, in order to have approximately the same weight for all of them. Samples were then washed and processed with methylthiazolyldiphenyl-tetrazolium bromide (MTT). The color intensity, that is directly proportional to skin vitality, was measured with a plate reader at a wavelength of 570 nm. For melanin quantification, skin sections were stained with a modified Fontana-Masson stain that dyes melanin argentaffin granules in black/dark grey. The amount of melanin present in each slide was evaluated by estimating grey intensity and distribution within the sections using ImageJ application (NIH-USA). Two slides of each skin sample were processed by image acquisition and related analysis (i.e., 12 images for each treatment).
# Figure 2 Stimulation of pigmentation by MC1R-agonist peptides ex vivo. Melanin was quantified on skin sections using ImageJ software (NIH, USA). Human abdominal skin was topically treated with peptides at various concentrations for six days. * p < 0.05 vs vehicle by unpaired Student’s t-test. […]
# Nrf2 (phospho S40) = assay: Nrf2 serine 40 phosphorylation in skin explants after UVA-irradiation; type: cell-based, human; details: p < 0.05 vs UVA-irradiated vehicle control
# Method: On an abdominoplasty coming from a person with Fitzpatrick phototype II, skin explants of an average diameter of 11 mm were prepared after obtaining written informed consent. The explants were kept in culture medium at 37 °C in a humid, 5% CO2 atmosphere. The peptide was applied topically and spread using a small spatula on day 0 (D0), D1, D2, and D3. […] On day 3, explants were irradiated with UVA (13.5 J/cm^2 equal to 3 minimal erythemal doses (MED)) using a Vilbert Lourmat solar simulator RMX 3W. For the UV irradiation, the explants were transferred into 1 mL of HBSS (Hank’s buffered salt solution) medium. The non-irradiated batches were kept in 1 mL of HBSS medium. After the UV exposure, all the explants were put in fresh Bio-EC’s explant medium (BEM medium). The products were applied on the explants 3 h before and just after UVA irradiation. Twenty-four hours after UVA irradiation, the tissues were harvested and processed for histology. After fixation for 24 h in buffered formalin, the samples were dehydrated and impregnated in paraffin using a Leica TP 1010 dehydration automat. The samples were embedded using a Leica EG 1160 embedding station. Sections 5 µm thick were made using a Leica RM 2125 Minot-type microtome, and the sections were mounted on Superfrost® histological glass slides (Thermo Fisher Scientific, Waltham, MA, USA). […]
# T1 sequence (P41143 whole entry): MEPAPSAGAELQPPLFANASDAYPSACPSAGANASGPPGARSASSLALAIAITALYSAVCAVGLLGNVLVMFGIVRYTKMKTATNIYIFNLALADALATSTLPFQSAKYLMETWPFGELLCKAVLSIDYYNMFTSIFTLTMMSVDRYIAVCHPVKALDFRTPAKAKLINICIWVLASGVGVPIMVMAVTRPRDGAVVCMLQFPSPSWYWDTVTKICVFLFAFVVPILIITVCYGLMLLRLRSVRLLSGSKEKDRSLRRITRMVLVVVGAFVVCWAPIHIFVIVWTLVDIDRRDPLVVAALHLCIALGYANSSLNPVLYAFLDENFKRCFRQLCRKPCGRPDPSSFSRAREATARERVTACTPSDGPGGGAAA
# Chain of human ETBR (P24530 27-442): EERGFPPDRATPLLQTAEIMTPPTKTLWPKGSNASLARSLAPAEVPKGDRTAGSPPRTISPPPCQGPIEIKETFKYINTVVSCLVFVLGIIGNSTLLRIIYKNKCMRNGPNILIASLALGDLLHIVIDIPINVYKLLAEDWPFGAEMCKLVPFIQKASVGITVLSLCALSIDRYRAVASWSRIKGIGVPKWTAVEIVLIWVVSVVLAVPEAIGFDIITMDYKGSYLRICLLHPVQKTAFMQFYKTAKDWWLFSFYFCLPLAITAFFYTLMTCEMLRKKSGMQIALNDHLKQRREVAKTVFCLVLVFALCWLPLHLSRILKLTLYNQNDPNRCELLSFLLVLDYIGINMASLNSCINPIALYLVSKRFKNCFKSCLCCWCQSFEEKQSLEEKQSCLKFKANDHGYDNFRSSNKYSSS
structure (smiles),measurement,setting,value
CCCN(CCC)C(=O)[C@@H](Cc1c[nH]c2ccccc12)NC(=O)[C@H](CCCNC(=N)N)NC(=O)[C@@H](Cc1ccccc1)NC(=O)[C@H](Cc1c[nH]cn1)NC(=O)CNC(=O)c1ccccc1 [Peptide 4] (Bz-GH[dF]R[dW]-NPr2),pEC50,OP1R,< 4.00
same,pEC50,human ETBR,< 4.00
same,Stimulation of pigmentation compared to vehicle-treated control tissue,"[1]; 200 µM peptide, six days",up to 21%
same,Concentration of optimal activity for pigmentation enhancement,[1]; human abdominal skin ex vivo,30 µM
same,Induction of Nrf2 phosphorylation on serine 40,Nrf2 (phospho S40),up to 161%
